Data on 38 molecules can be found in US10934274B2, “Quinoline derivatives as TAM RTK inhibitors” (Qurient Co., Ltd., priority 2015, dated 2021).

The structures appear in SMILES notation.

For one assay, the target named is T1, Axl (Homo sapiens, UniProt P30530).
T1 construct: purchased Life Technologies
T1 sequence (P30530 26-894): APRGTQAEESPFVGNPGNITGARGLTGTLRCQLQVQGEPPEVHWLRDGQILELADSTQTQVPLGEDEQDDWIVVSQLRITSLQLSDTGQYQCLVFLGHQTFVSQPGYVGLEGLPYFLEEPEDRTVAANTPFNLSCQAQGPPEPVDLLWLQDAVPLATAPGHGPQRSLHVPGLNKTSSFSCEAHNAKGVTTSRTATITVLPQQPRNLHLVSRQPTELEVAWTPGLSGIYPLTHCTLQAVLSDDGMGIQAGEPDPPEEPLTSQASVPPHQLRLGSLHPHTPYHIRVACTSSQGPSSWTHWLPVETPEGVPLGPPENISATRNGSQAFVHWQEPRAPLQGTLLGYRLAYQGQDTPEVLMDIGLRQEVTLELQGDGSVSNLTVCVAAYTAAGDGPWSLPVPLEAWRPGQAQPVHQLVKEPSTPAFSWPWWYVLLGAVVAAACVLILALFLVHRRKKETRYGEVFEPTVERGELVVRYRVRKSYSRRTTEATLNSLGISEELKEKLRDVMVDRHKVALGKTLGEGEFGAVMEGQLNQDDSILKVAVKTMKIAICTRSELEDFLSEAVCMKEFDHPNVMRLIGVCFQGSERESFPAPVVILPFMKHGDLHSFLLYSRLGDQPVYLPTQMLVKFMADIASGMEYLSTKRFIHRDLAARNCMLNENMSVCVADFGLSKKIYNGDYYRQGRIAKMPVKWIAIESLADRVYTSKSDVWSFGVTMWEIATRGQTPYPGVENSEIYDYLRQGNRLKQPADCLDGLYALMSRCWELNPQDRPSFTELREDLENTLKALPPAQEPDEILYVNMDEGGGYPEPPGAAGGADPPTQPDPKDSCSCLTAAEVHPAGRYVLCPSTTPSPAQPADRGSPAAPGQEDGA
Kind of assay: LanthaScreen Eu kinase binding assay, Axl. As to conditions: Tracer 236.

The next assay has as its target T2, Mer (Homo sapiens, UniProt Q12866).
T2 construct: purchased Life Technologies
T2 sequence (Q12866 21-999): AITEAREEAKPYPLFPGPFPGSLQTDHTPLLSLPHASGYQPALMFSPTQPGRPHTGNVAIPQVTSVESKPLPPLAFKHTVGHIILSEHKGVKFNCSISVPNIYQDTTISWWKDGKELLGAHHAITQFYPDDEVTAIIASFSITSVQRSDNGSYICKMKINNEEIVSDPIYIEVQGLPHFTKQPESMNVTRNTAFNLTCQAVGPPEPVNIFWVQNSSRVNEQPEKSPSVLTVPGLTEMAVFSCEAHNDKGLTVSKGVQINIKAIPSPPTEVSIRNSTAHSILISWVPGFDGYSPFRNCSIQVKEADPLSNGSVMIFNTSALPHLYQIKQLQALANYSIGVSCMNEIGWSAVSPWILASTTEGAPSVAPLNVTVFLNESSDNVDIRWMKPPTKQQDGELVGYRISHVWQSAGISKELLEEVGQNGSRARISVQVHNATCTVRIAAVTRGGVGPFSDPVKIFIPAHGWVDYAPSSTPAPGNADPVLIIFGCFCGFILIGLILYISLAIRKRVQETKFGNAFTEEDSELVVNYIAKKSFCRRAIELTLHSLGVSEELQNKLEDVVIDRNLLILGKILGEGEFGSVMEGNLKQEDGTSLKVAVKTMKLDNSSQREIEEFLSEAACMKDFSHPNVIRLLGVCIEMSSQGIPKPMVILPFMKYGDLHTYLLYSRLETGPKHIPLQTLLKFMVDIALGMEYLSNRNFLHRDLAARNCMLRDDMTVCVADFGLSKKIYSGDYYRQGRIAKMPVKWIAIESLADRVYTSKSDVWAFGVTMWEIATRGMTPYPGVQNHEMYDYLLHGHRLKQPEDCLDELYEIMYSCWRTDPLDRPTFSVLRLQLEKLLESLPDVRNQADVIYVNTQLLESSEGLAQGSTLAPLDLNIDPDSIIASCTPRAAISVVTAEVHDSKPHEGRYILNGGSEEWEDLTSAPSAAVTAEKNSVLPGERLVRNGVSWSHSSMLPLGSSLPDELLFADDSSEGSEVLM
Kind of assay: LanthaScreen Eu kinase binding assay, Mer. As to conditions: Tracer 236. On the technique in general: TR-FRET usually uses a lanthanide donor and a delayed reading to cut background.

Usually Kd stands for the constant that tells how readily two partners part at equilibrium. A high value points to a looser complex. `CCOc1cnn(-c2ccco2)c1C(=O)Nc1ccc(Oc2ccnc3cc(OC)c(OC)cc23)cn1` [Compound 58]: the Kd on Axl is less than 100 nM; at Mer, 100 to 1000 nM.
Regarding `CCOc1cnn(C)c1C(=O)Nc1ccc(Oc2ccnc3cc(OC)c(OC)cc23)cn1` [Compound 30], the dissociation constant Kd at Axl was no less than 1000 nM; at Mer, 100 to 1000 nM.
Regarding `COc1cc2nccc(Oc3ccc(NC(=O)c4nn(-c5ccc(F)cc5F)cc4OCC4CC4)nc3)c2cc1OC` [Compound 267], the Kd at Axl and on Mer was less than 100 nM in each case.
Consider `COc1cc2c(Oc3ccc(NC(=O)c4nn(-c5cnc(N)nc5)cc4OCC(F)(F)F)nc3)ccnc2cc1OC(C)C` [Compound 257], for which the Kd at Axl and at Mer was less than 100 nM each time.
As to `CCOc1cn(-c2cnccc2CN(C)C)nc1C(=O)Nc1ccc(Oc2ccnc3cc(OC)c(OC)cc23)cn1` [Compound 73], the Kd at Axl and on Mer was less than 100 nM each time.
For `CCOc1cn(C2CCCN(C(C)=O)C2)nc1C(=O)Nc1ccc(Oc2ccnc3cc(OC)c(OC)cc23)cc1F` (stereo not shown) [Compound 224], the Kd at Axl and at Mer was less than 100 nM throughout.
With `CCOc1cn(-c2ccncc2C)nc1C(=O)Nc1ccc(Oc2ccnc3cc(OC)c(OC)cc23)cn1` [Compound 34], the Kd on Axl and at Mer was less than 100 nM throughout.
Take `CCOc1cn(-c2cccnc2Cl)nc1C(=O)Nc1ccc(Oc2ccnc3cc(OC)c(OC)cc23)cn1` [Compound 19]: the Kd on Axl and at Mer was less than 100 nM each time.
In the case of `COc1cc2nccc(Oc3ccc(NC(=O)c4nn(-c5cnccc5C(F)(F)F)cc4OCC4CC4)nc3)c2cc1OC` [Compound 247], the Kd on Axl and at Mer was less than 100 nM in each case.
Turning to `COc1cc2nccc(Oc3ccc(NC(=O)c4nn(-c5cnc(N)cn5)cc4OCC(F)(F)F)c(F)c3)c2cc1OC` [Compound 252], the Kd on Axl and on Mer was less than 100 nM in each case.
As for `CCOc1cn(-c2cnc(N)nc2)nc1C(=O)Nc1ccc(Oc2ccnc3cc(OC)c(OC(F)(F)F)cc23)cc1F` [Compound 242], the Kd on Axl and on Mer was no less than 1000 nM throughout.
As to `COc1cc2c(Oc3ccc(NC(=O)c4nn(-c5cnc(N)nc5)cc4OCC(F)(F)F)c(F)c3)ccnc2cc1OC(C)C` [Compound 243], the Kd on Axl and at Mer was less than 100 nM each time.
`CCOc1cn(-c2ccc(N(C)C)cc2Cl)nc1C(=O)Nc1ccc(Oc2ccnc3cc(OC)c(OC)cc23)cn1` [Compound 31]: the Kd on Axl and on Mer was less than 100 nM each time.
As for `CCOc1cn(Cc2cnccc2C)nc1C(=O)Nc1ccc(Oc2ccnc3cc(OC)c(OC)cc23)cc1F` [Compound 226], the Kd at Axl and at Mer was less than 100 nM throughout.
For `COc1cc2nccc(Oc3ccc(NC(=O)c4nn(-c5cnc(N)nc5)cc4OCC4COC4)nc3)c2cc1OC` [Compound 269], the dissociation constant Kd at Axl and at Mer was less than 100 nM in each case.
Take `COc1cc2nccc(Oc3ccc(NC(=O)c4nn(-c5ccc(F)cc5C)cc4OCC4CC4)nc3)c2cc1OC` [Compound 258]: the dissociation constant (Kd) on Axl and on Mer was less than 100 nM each time.
With `CCOc1cn(-c2cnc(C#N)nc2)nc1C(=O)Nc1ccc(Oc2ccnc3cc(OC)c(OC)cc23)cn1` [Compound 55], the figures for the equilibrium dissociation constant (Kd) on Axl and on Mer were less than 100 nM and 100 to 1000 nM, respectively.
Consider `CCOc1cn(C2CCN(C)C2)nc1C(=O)Nc1ccc(Oc2ccnc3cc(OC)c(OC)cc23)cc1F` (stereo not shown) [Compound 212], for which the Kd on Axl and on Mer was 100 to 1000 nM throughout.
In the case of `CCOc1cnn(C2CCCN(C)C2)c1C(=O)Nc1ccc(Oc2ccnc3cc(OC)c(OC)cc23)cc1F` (stereo not shown) [Compound 213], the dissociation constant Kd at Axl is no less than 1000 nM; at Mer it was 100 to 1000 nM.
The matching figures for `CCOc1cn(C(C)(C)C(=O)NC)nc1C(=O)Nc1ccc(Oc2ccnc3cc(OC)c(OC)cc23)cn1` [Compound 68]: less than 100 nM and less than 100 nM.
The matching figures for `CCOc1cn(C2CCCN(C(N)=O)C2)nc1C(=O)Nc1ccc(Oc2ccnc3cc(OC)c(OC)cc23)cc1F` (stereo not shown) [Compound 225]: less than 100 nM and less than 100 nM.
Consider `CCOc1cn(-c2ccc(OC)cc2)nc1C(=O)Nc1ccc(Oc2ccnc3cc(OC)c(OC)cc23)cn1` [Compound 1], for which the Kd on Axl and at Mer was less than 100 nM each time.
With `CCOc1cn(-c2ccc(C#N)cn2)nc1C(=O)Nc1ccc(Oc2ccnc3cc(OC)c(OC)cc23)cn1` [Compound 43], the Kd on Axl and at Mer was no less than 1000 nM in each case.
`CCOc1cn(-c2cccnc2C)nc1C(=O)Nc1ccc(Oc2ccnc3cc(OC)c(OC)cc23)cn1` [Compound 23]: the Kd at Axl and at Mer was less than 100 nM in each case.
For the molecule `COc1cc2nccc(Oc3ccc(NC(=O)c4nn(-c5cnc(N)nc5)cc4OC(F)F)nc3)c2cc1OC` [Compound 254], the Kd on Axl and on Mer was less than 100 nM each time.
With `CCOc1cn(-c2ccnnc2)nc1C(=O)Nc1ccc(Oc2ccnc3cc(OC)c(OC)cc23)cn1` [Compound 40], the dissociation constant Kd at Axl and at Mer was less than 100 nM each time.
With `CCOc1cn(CC2CCO2)nc1C(=O)Nc1ccc(Oc2ccnc3cc(OC)c(OC)cc23)cn1` (stereo not shown) [Compound 48], the Kd on Axl and on Mer was less than 100 nM each time.
In the case of `COc1cc2c(Oc3ccc(NC(=O)c4nn(-c5cnc(N)cn5)cc4OCC(F)(F)F)c(F)c3)ccnc2cc1OC(C)C` [Compound 246], the dissociation constant (Kd) on Axl and on Mer was less than 100 nM in each case.
As to `CCOc1cnn(-c2ccsc2)c1C(=O)Nc1ccc(Oc2ccnc3cc(OC)c(OC)cc23)cn1` [Compound 21], the values for the Kd on Axl and at Mer were less than 100 nM and 100 to 1000 nM, respectively.
`CCOc1cn(CC)nc1C(=O)Nc1ccc(Oc2ccnc3cc(OC)c(OC)cc23)cn1` [Compound 27]: the dissociation constant Kd at Axl and on Mer was less than 100 nM in each case.
Turning to `COc1cc2nccc(Oc3ccc(NC(=O)c4nn(-c5cnc(N)nc5)cc4OCC(F)(F)F)c(F)c3)c2cc1OC` [Compound 259], the Kd on Axl and on Mer was less than 100 nM each time.
For the molecule `COc1cc2nccc(Oc3ccc(NC(=O)c4nn(-c5cnc(N)cn5)cc4OCC4CC4)nc3)c2cc1OC` [Compound 249], the dissociation constant Kd at Axl and on Mer was less than 100 nM throughout.
`CCOc1oc(-c2cccnc2)nc1C(=O)Nc1ccc(Oc2ccnc3cc(OC)c(OC)cc23)cn1` [Compound 44]: the Kd on Axl and at Mer was less than 100 nM each time.
As to `COc1cc2nccc(Oc3ccc(NC(=O)c4nn(-c5ccc(F)cc5C5CCCC5)cc4OCC4CC4)nc3)c2cc1OC` [Compound 270], the Kd on Axl and at Mer was 100 to 1000 nM each time.
Turning to `COc1cc2nccc(Oc3ccc(NC(=O)c4nn(-c5ccc(F)cc5N5CCOCC5)cc4OCC4CC4)nc3)c2cc1OC` [Compound 266], the equilibrium dissociation constant (Kd) at Axl and on Mer was less than 100 nM each time.
As to `COc1cc2nccc(Oc3ccc(NC(=O)c4nn(-c5cnc(N)nc5)cc4OC(C)C)nc3)c2cc1OC` [Compound 260], the Kd on Axl and on Mer was less than 100 nM throughout.
Consider `CCOc1sc(-c2cccnc2)nc1C(=O)Nc1ccc(Oc2ccnc3cc(OC)c(OC)cc23)cn1` [Compound 45], for which the Kd at Axl and at Mer was less than 100 nM in each case.
Turning to `CCOc1cn(-c2cnc(N)nc2)nc1C(=O)Nc1ccc(Oc2ccnc3cc(OC)c(OC(F)(F)F)cc23)cn1` [Compound 241], the Kd at Axl and on Mer was less than 100 nM in each case.
